Counter-ions that a name gives are not always drawn.
Target: T1, R928C mutant KCNT1 channels (Homo sapiens, UniProt Q5JUK3, R909C)
T1 construct: YFP-6His; expressed in transfected cells; host or cells: HEK293T
T1 sequence (Q5JUK3 1-1235 isoform Q5JUK3-3 R928C): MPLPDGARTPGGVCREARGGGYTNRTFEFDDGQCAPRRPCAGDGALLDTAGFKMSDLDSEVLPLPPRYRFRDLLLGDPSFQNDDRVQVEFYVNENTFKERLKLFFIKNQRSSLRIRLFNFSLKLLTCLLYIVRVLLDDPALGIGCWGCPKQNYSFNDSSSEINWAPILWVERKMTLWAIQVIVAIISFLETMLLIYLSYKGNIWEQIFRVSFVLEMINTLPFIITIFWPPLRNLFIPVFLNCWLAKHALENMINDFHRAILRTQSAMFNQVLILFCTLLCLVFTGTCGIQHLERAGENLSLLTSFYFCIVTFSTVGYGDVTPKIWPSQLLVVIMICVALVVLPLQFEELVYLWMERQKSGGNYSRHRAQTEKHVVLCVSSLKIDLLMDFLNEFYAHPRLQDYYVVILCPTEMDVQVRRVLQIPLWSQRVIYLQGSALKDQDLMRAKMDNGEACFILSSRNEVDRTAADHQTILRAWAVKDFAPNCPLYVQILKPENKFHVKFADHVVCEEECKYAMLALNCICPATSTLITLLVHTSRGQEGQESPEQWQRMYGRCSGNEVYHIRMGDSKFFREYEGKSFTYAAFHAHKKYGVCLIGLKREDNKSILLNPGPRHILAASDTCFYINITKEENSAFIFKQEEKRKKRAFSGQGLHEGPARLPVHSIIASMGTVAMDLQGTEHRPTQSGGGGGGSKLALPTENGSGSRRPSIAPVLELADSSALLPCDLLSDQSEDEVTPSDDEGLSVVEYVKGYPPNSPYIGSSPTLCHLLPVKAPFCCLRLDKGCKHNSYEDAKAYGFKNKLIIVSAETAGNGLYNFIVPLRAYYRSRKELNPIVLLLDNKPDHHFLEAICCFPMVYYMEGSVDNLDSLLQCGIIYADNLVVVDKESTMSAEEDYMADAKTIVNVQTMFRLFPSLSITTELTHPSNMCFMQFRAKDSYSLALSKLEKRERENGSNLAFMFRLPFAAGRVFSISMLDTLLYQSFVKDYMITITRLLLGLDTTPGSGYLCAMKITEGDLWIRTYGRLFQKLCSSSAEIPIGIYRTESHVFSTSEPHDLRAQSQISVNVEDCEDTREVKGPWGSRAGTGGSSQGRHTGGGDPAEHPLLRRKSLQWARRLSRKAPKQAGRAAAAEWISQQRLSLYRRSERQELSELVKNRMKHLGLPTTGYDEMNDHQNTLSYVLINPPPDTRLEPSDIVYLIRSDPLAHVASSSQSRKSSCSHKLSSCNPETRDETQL
Assay: Inside-out patch clamp of HEK293T cells expressing R928C KCNT1
Type: cell-based
Details: inside-out patches, mean ± SEM
Description: The CHO cells were cultured in Dulbecco's modified Eagle's Medium (ThermoFisher, UK) supplemented with 10% (v/v) fetal bovine serum, 50 U/ml penicillin and 0.05 mg/ml streptomycin, and incubated at 37°C in 5% CO2 atmosphere. For whole cell recording of WT/Y796H KCNT1, CHO cells were transiently co‐transfected with concatemeric WT/Y796H and EYFP, as described previously.[29] For electrophysiological experiments, cells were plated onto borosilicate glass cover slips and used 2 to 4 days later. Human embryonic kidney 293T cells (HEK293T) were cultured in the same manner, but with medium supplemented with 2 mM L‐glutamine, and 1% (v/v) nonessential amino acids. For excised inside‐out recording of homomeric WT or mutant YFP‐tagged KCNT1, HEK293T cells plated on glass cover slips were transfected using Attractene Transfection Reagent (Qiagen, Germany) according to the manufacturer's instructions and used 2 to 3 days later.
Inside‐out patch clamp recordings were made at room temperature (23°C) from transiently transfected HEK293T cells, as described previously.[11] The pipette solution contained, in mM, 140 NaCl, 4 KCl, 2 CaCl2, 2 MgCl2, and 10 HEPES adjusted to pH 7.4 with NaOH. […] KCNT1 currents were recorded using 2 voltage protocols, depending on the number of active channels in the patch before drug application. Macroscopic currents (number of active channels > 15) were recorded in response to 100 ms voltage ramps between −120 and 120 mV applied every 2 seconds from a holding potential of −78 mV. […] With a lower number of active channels in the patch (3–15), current traces were recorded in response to 15‐second voltage steps to −20, 0, and 20 mV from a holding potential of −78 mV. Currents recorded at each voltage and each drug concentration were averaged over the duration of the trace and normalized to the average amplitudes of the corresponding current traces in drug‐free solution. […] Single channel data were analyzed using Ana software developed by Dr Michael Pusch (Istituto di Biofisica, Genova, Italy; http://users.ge.ibf.cnr.it/pusch/programs-mik.htm). […]

Compound	IC50
O=C(OCCN1CCN(c2cccc(C(F)(F)F)c2)CC1)c1ccccc1Nc1ccnc2cc(C(F)(F)F)ccc12 [antrafenine]	12.3 ± 3.9 nM
CC(C)c1c(C(=O)Nc2ccccc2)c(-c2ccccc2)c(-c2ccc(F)cc2)n1CC[C@@H](O)C[C@@H](O)CC(=O)O [atorvastatin]	1200 ± 300 nM
Cc1c(O)cccc1C(=O)N[C@@H](CSc1ccccc1)[C@H](O)CN1C[C@H]2CCCC[C@H]2C[C@H]1C(=O)NC(C)(C)C [nelfinavir mesylate]	8 ± 1.1 nM
